Patent US11541006B2, “Aqueous formulation for insoluble drugs” (priority 2018, dated 2023)
Converted amounts (≈) assume the structure as drawn. Where a name gives a salt, the structure may show the parent alone.

What was measured:
[1] = cited from earlier work; for Solubility according to USP definition: in water
[2] = Solubility of insoluble drugs in 16% SBECD aqueous solution (Example 27); settings: for solubility: 16% SBECD aqueous solution, aqueous with cosolvent or surfactant or cyclodextrin, thermodynamic from solid; for Measured solubility in 16% SBECD: 16% sulfobutyl ether beta cyclodextrin aqueous solution
Excerpt: Add a known amount of an insoluble drug substance. • 3. Mix to dissolve the drug substance. • 4.

[3] = Solubility of insoluble drugs in F96 LMBW vehicle (Example 4); format: physicochemical; settings: for solubility: aqueous with cosolvent or surfactant or cyclodextrin, thermodynamic from solid
Excerpt: Twenty-two (22) insoluble drugs having a wide variety of chemical structures (including chemical element, small molecule, peptide and protein), properties and biological activities (including drugs, diagnostic agents and nutritional supplement agents) were selected and tested for solubility in F96 LMBW vehicle as follows: • 1. Measure out a fixed amount of F96 vehicle. • 2. Add a known amount of an insoluble drug substance. • 3. Mix to dissolve the drug substance. • 4. […] Record the maximum amount of the insoluble drug substance that the F96 LMBW vehicle could dissolve and use this value to calculate the drug's solubility in the F96 LMBW vehicle.

[4] = Solubility of disease-related insoluble solids in LMBW vehicle and PBS (Example 29); format: physicochemical; settings: for solubility: thermodynamic from solid
Excerpt: These solids have very low solubility in the body fluids and therefore they have a high tendency to precipitate and to form the undesirable solid deposits in vivo. […] Weigh out a fixed amount of a solid of interest, • 2. […] Mix to dissolve the solid, • 4. If the solid has completely dissolved, add more until it is no longer dissolving in the vehicle • 5.

Compound	Solubility according to USP definition [1]	Reported solubility in water [1]	solubility [2] [µg/mL]	solubility [3] [µg/mL]	solubility ([4]; F96 LMBW vehicle, aqueous with cosolvent or surfactant or cyclodextrin, vehicle at pH 7) [µg/mL]	solubility ([4]; phosphate buffered saline, aqueous buffer, read-out: Solubility in PBS) [µg/mL]	Measured solubility in 16% SBECD [2] [µg/mL]	Measured solubility in F96 LMBW Vehicle ([3]; stepwise addition until no longer dissolving) [µg/mL]	Solubility in PBS ([4]; phosphate buffered saline) [µg/mL]	Measured solubility in F96 LMBW Vehicle ([4]; vehicle at pH 7) [µg/mL]
C[C@@H]1[C@H](O)[C@@H](C)/C=C/C=C/C=C/C=C/C=C/C=C/C=C/[C@H](O[C@@H]2O[C@H](C)[C@@H](O)[C@H](N)[C@@H]2O)C[C@@H]2O[C@](O)(C[C@@H](O)C[C@@H](O)[C@H](O)CC[C@@H](O)C[C@@H](O)CC(=O)O[C@H]1C)C[C@H](O)[C@H]2C(=O)O [Amphotericin]	Insoluble	<0.0001 mg/mL	70 (≈ 0.0758 mM)	2400 (≈ 2.6 mM)						
C[C@@H](O[C@H]1OCCN(Cc2n[nH]c(=O)[nH]2)[C@H]1c1ccc(F)cc1)c1cc(C(F)(F)F)cc(C(F)(F)F)c1 [Aprepitant]	Practically	<0.0001 mg/mL	150 (≈ 0.281 mM)	12700 (≈ 23.8 mM)						
CC[C@@]1(O)C(=O)OCc2c1cc1n(c2=O)Cc2cc3ccccc3nc2-1 [Camptothecin]	Insoluble	<0.0001 mg/mL	60 (≈ 0.172 mM)	500 to 1000 (≈ 1.44 to 2.87 mM)						
Cc1ccc(-c2cc(C(F)(F)F)nn2-c2ccc(S(N)(=O)=O)cc2)cc1 [Celecoxib]	Very poorly	0.001-0.0001 mg/mL	1030 (≈ 2.7 mM)	7300 (≈ 19.1 mM)						
CC(C)CCC[C@@H](C)[C@H]1CC[C@H]2[C@@H]3CC=C4C[C@@H](O)CC[C@]4(C)[C@H]3CC[C@]12C [Cholesterol]					25000 (≈ 64.7 mM)	50 (≈ 0.129 mM)				
CC[C@H]1OC(=O)[C@H](C)[C@@H](O[C@H]2C[C@@](C)(OC)[C@@H](O)[C@H](C)O2)[C@H](C)[C@@H](O[C@@H]2O[C@H](C)C[C@H](N(C)C)[C@H]2O)[C@](C)(OC)C[C@@H](C)C(=O)[C@H](C)[C@@H](O)[C@]1(C)O [Clarithromycin]	Practically	<0.0001 mg/mL	1710 (≈ 2.29 mM)	9100 (≈ 12.2 mM)						
CC(C)Cc1ccc(C(C)C(=O)O)cc1 (stereo not drawn) [Ibuprofen]	Sparingly		3580 (≈ 17.4 mM)	53100 (≈ 257 mM)						
CCC(C)n1ncn(-c2ccc(N3CCN(c4ccc(OCC5COC(Cn6cncn6)(c6ccc(Cl)cc6Cl)O5)cc4)CC3)cc2)c1=O (stereo not drawn) [Intraconazole]	Insoluble	<0.0001 mg/mL					170	500 to 1000		
CCc1c2c(nc3ccc(OC(=O)N4CCC(N5CCCCC5)CC4)cc13)-c1cc3c(c(=O)n1C2)COC(=O)[C@]3(O)CC [Irinotecan HCl]	Insoluble	<0.0001 mg/mL	2120	20400						
N[C@@H](Cc1ccc(O)c(O)c1)C(=O)O [Levodopa]	Slightly soluble (100-1000)		2130 (≈ 10.8 mM)	10000 (≈ 50.7 mM)						
O=c1[nH]c(=O)c2[nH]c([O-])nc2[nH]1.[Na+] [Mono sodium urate]									<1	50
CC(=O)O[C@H]1C(=O)[C@@]2(C)[C@H]([C@H](OC(=O)c3ccccc3)[C@]3(O)C[C@H](OC(=O)[C@H](O)[C@@H](NC(=O)c4ccccc4)c4ccccc4)C(C)=C1C3(C)C)[C@]1(OC(C)=O)CO[C@@H]1C[C@@H]2O [Paclitaxel]	Insoluble	<0.0001 mg/mL								
CC1=C(C/C=C(\C)CCC[C@H](C)CCC[C@H](C)CCCC(C)C)C(=O)c2ccccc2C1=O [Phytonadione]	Insoluble	<0.0001 mg/mL	150 (≈ 0.333 mM)	28200 (≈ 62.6 mM)						
CC[C@@H]([C@H](C)O)n1ncn(-c2ccc(N3CCN(c4ccc(OC[C@@H]5CO[C@@](Cn6cncn6)(c6ccc(F)cc6F)C5)cc4)CC3)cc2)c1=O [Posaconazole]	Insoluble	<0.0001 mg/mL	270 (≈ 0.385 mM)	500 (≈ 0.713 mM)						
CC(=O)[C@H]1CC[C@H]2[C@@H]3CCC4=CC(=O)CC[C@]4(C)[C@H]3CC[C@]12C [Progesterone]	Sparingly	0.017 mg/mL	4060 (≈ 12.9 mM)	12000 (≈ 38.2 mM)						
CC(C)c1cccc(C(C)C)c1O [Propofol]	Insoluble	<0.0001 mg/mL	56600 (≈ 317 mM)	50800 (≈ 285 mM)						
Oc1ccc(C=Cc2cc(O)cc(O)c2)cc1 [Resveratrol]	Insoluble	<0.0001 mg/mL	4850 (≈ 21.2 mM)	9000 (≈ 39.4 mM)						
Casein	Very poorly	0.001-0.0001 mg/mL					150			
